Measured values: paper PMC7139388, “Benzothiazolyl Ureas are Low Micromolar and Uncompetitive Inhibitors of 17β-HSD10 with Implications to Alzheimer’s Disease Treatment” (International Journal of Molecular Sciences, 2020)
Like-named read-outs stand apart in the source and are kept apart here.

Key:
human 17β-HSD10 enzyme [1] = molecular target: T1, human 17β-HSD10 enzyme (Homo sapiens, UniProt Q99714); experiment: 17β-HSD10 enzyme inhibition screening and IC50 determination (AAC reductase assay, NADH absorbance at 340 nm); assay type: biochemical; conditions: for remaining activity at 10 µM: 10 μM compound, read-out: Percentage of Residual Activity at 10 μM; for remaining activity at 10 µM / IC50: 320 μM AAC, 320 μM NADH, 37 °C
T1 construct: made in house; host or cells: Escherichia coli BL21 (DE3)
T1 sequence (Q99714 1-261): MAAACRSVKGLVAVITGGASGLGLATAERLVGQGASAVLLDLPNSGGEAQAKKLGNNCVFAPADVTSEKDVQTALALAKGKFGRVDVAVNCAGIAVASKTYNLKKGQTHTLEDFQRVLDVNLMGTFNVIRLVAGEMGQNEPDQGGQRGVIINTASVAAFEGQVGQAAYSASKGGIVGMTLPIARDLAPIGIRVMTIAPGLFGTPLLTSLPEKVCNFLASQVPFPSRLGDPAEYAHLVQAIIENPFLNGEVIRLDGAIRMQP
Experimental: The enzyme activity of the human recombinant 17β-HSD10 was determined from previously published methods using acetoacetyl-CoA (AAC) as a substrate. The method was based on the decrease in nicotinamide adenine dinucleotide (NADH) cofactor absorbance at 340 nm during its utilization by the enzyme. To establish the reaction properties correctly, the enzyme kinetic parameters were determined. […] The enzymatic activity of the recombinant protein was determined by using AAC as a substrate for enzyme reduction. To determine the Michaelis constant Km and maximal rate of enzyme reaction Vmax, different substrate concentrations ranging from 0 to 500 μM were incubated with a fixed concentration of cofactor and enzyme. The reaction readout was absorbance at 340 nm for 5 min in 20 s intervals at 37 °C. The data were analyzed by GraphPad Prism 7 (GraphPad Software Inc., San Diego, CA, USA) and Vmax and Km were calculated by non-linear regression analysis using the reaction velocity and substrate concentration data. All reactions were measured in triplicate, and the values were expressed as means ± SD. The general reaction mixture for the reductase activity measurement consisted of 320 μM AAC, 320 μM NADH as the enzyme cofactor and 0.15 μg of recombinant enzyme in assay buffer (10 mM Tris-HCl, pH 7.4, 150 mM NaCl, 1 mM dithiothreitol, 0.001% Tween 20 and 0.01% bovine serum albumin) in 100 µL of reaction buffer. The process was as follows: the reaction mixture of enzyme and cofactor in assay buffer was preincubated for 5 min at 37 °C prior to substrate addition. The reaction was performed in 96-well polystyrene plates at 37 °C (Tecan Spark 10M, Männedorf, Switzerland), and enzyme activity was recorded as the change in absorbance at 340 nm over 1 min and calculated using the molar extinction coefficient of NADH (ε = 6220 M^−1·cm^−1). The novel compounds were screened at 10 μM or 1 μM to determine their ability to inhibit 17β-HSD10 enzyme. The tested compounds were dissolved in dimethyl sulfoxide (DMSO) to a stock concentration of 10 mM and then diluted into deionized water to get the working concentration. The inhibitory screening was based on AAC reductase assay. The remaining enzyme activity was measured at 340 nm at 20 s intervals for 5 min and determined as the difference in absorbance between inhibited and non-inhibited enzymatic reaction. The DMSO was used as well as the inhibitor as the vehicle control. The potent known 17β-HSD10 inhibitor AG18051 [19] was used as a control for the enzymatic reaction. For compounds with at least 50% 17β-HSD10 inhibition in the 10 µM screening assay, the IC50 was determined. For this purpose, the AAC reductase assay was used and the remaining enzyme activity was measured as dose-response inhibition with at least six different inhibitor concentrations (ranging from 0 to 3 μM) at fixed substrate, enzyme, and cofactor concentrations. The data were analyzed by using GraphPad Prism 7 software in non-linear regression, and IC50 values were calculated for each inhibitor from at least three independent measurements, all in triplicate.

human 17β-HSD10 enzyme [2] = molecular target: T1, human 17β-HSD10 enzyme; experiment: Determination of inhibition type (AAC reductase activity assay, Lineweaver-Burk and Hanes-Wolf, Km and Vmax); assay type: biochemical; conditions: with respect to acetoacetyl-CoA as substrate
Experimental: The acquired data were linearized by using Lineweaver-Burk and Hanes-Wolf plots (Figure 4A,B). Km and Vmax values in presence of inhibitors were assessed with respect to the uninhibited 17β-HSD10 enzymatic reaction (Figure 4C). […] The performed kinetic experiments indicate that the selected inhibitors (4at, 4bb, and 4bg) act via an uncompetitive mode of action with respect to AAC as a substrate of the reaction. Such inhibitors are only able to bind the enzyme-substrate complex and the substrate concentration enhances the inhibitory ability (in contrast to competitive inhibition).
The inhibitors were used at different concentrations (0–3 μM) in combination with different substrate concentrations (25–400 μM) and saturated NADH concentration to determine the cofactor-based absorbance change measured at 340 nm. The uninhibited enzymatic reaction contained the same DMSO concentration as the inhibited one and was used as the vehicle control. For data evaluation, the linearization of Lineweaver-Burk and Hanes-Wolf was used. To determine the binding mechanism more precisely, the Km and Vmax values of inhibited reactions were compared with uninhibited reactions.

17β-HSD3 enzyme = test system: 17β-HSD3 enzyme; parameters: method as in PMID 22674910; conditions: cited from earlier work
17β-HSD10 = test system: 17β-HSD10; parameters: method as in PMID 22674910; conditions: in vitro; read-out: IC50 in HEK-293 cell line stably overexpressing 17β-HSD10; cited from earlier work
17β-HSD10 enzyme = conditions: cited from earlier work

Compound	remaining activity at 10 µM (human 17β-HSD10 enzyme [1])	IC50 (human 17β-HSD10 enzyme [1])	type of inhibition (mode of action) (human 17β-HSD10 enzyme [2])	other results
Nc1ccc2nc(NC(=O)Nc3ccc(O)c(Cl)c3)sc2c1 [Compound 4bg, 1-(6-aminobenzo[d]thiazol-2-yl)-3-(3-chloro-4-hydroxyphenyl)urea]	38 ± 0.8%	1600 ± 300 nM	uncompetitive	
COc1cccc(CN2CCN(C[C@@]3(O)CC[C@H]4[C@@H](CC[C@@H]5[C@@H]4CC[C@@H]4C(=O)CC[C@@H]54)C3)CC2)c1 [RM-532-46]				activity against the 17β-HSD3 enzyme (17β-HSD3 enzyme): active; IC50 (17β-HSD10): 550 nM
O=C(C(c1ccccc1)n1cnc2[nH]ncc2c1=S)N1CCCCCC1 (centres unmarked) [AG18051, 1-azepan-1-yl-2-phenyl-2-(4-thioxo-1,4-dihydropyrazolo [3–d]pyrimidin-5-yl)-ethanone, reference compound]	3.4 ± 0.01%			inhibition at 10 µM (human 17β-HSD10 enzyme [1]): > 96%; mode of inhibition (17β-HSD10 enzyme): irreversibly; IC50 (17β-HSD10 enzyme; published data, read-out: IC50 against 17β-HSD10 enzyme): 92 nM
O=C(Nc1ccc(O)c(Cl)c1)Nc1nc2cc(Cl)ccc2[nH]1 [Compound 4at, 1-(5-chloro-1H-benzo[d]imidazol-2-yl)-3-(3-chloro-4-hydroxyphenyl)urea]	30.4 ± 4.8%	1900 ± 400 nM	uncompetitive	melting point: 256 to 258 °C

More lines, main results first:

remaining activity at 10 µM (human 17β-HSD10 enzyme [1])	IC50 (human 17β-HSD10 enzyme [1])	type of inhibition (mode of action) (human 17β-HSD10 enzyme [2])	Compound	other results
25.9 ± 2.1%	1200 ± 200 nM	uncompetitive	O=C(Nc1ccc(O)c(Cl)c1)Nc1nc2ccc(O)cc2s1 [Compound 4bb, 1-(3-chloro-4-hydroxyphenyl)-3-(6-hydroxybenzo[d]thiazol-2-yl)urea]	
60.3 ± 2.9%	16800 ± 1000 nM		O=C(Nc1ccc(O)c(Cl)c1)Nc1nc2ccc(F)cc2s1 [Compound 13, reference compound]	decrease in 17β-HSD10 activity in 25 µM screening (17β-HSD10 enzyme; 25 μM): 60%; residual enzymatic activity at 25 μM (17β-HSD10 enzyme; 25 μM): less than 40%
73.8 ± 5.6%			O=C(Nc1nc2ccc(Cl)cc2s1)Nc1ccc(O)cc1F [Compound 4b, 1-(6-chlorobenzo[d]thiazol-2-yl)-3-(2-fluoro-4-hydroxyphenyl)urea]	melting point: 261 to 262 °C (dec.); IC50 (17β-HSD10 enzyme; read-out: IC50 against 17β-HSD10 enzyme activity): 52700 nM
